Measurements published in US11078220B2, “High-purity large-scale preparation of stannsoporfin” (Mallinckrodt Hospital Products IP Limited, priority 2006, dated 2021).

Legend:
[1] = Long-term storage stability of high-purity stannsoporfin at 25° C. and 60% relative humidity; type: physicochemical; conditions: 25° C./60% RH
Description: (§1) The long-term stability of the compound was studied under two different storage conditions: 25° C. (+/−2° C.) and 60% relative humidity (+/−5%); and 40° C. (+/−2° C.) and 75% relative humidity (+/−5%). Primary packaging for the compound was a 4-mil polyethylene bag and secondary packaging for the compound was a 4 mil polyethylene bag, stored in an HDPE drum.
(§2) Table 5 and Table 6 show stability data for the batch described in Table 3, under the 25° C./60% RH and 40° C./75% RH conditions, respectively. Table 7 and Table 8 show stability data for the batch described in Table 4 under the 25° C./60% RH and 40° C./75% RH conditions, respectively. Data for the zero-month time point was taken from the batch release analysis (the zero time point represents the actual date when samples were placed in the stability test chambers). The samples were analyzed at approximately 3 months and approximately 6 months after the samples were placed under the storage conditions.

[2] = Long-term storage stability of high-purity stannsoporfin at 40° C. and 75% relative humidity; type: physicochemical; conditions: 40° C./75% RH
Description: as §1, §2

[3] = batch of Table 3 (0.840 kg), 0 months
[4] = batch of Table 3 (0.840 kg), 3 months
[5] = batch of Table 3 (0.840 kg), 6 months
[6] = batch of Table 4 (1.364 kg), 0 months
[7] = batch of Table 4 (1.364 kg), 3 months
[8] = batch of Table 4 (1.364 kg), 6 months

**Q.** For “tin (IV) mesoporphyrin IX dichloride [stannsoporfin]”, which “HPLC assay (w/w as is)” value [1, 3] is on record?
**A.** 100.4%

**Q.** And the “HPLC assay (w/w, solvent-free anhydrous basis)” value [1, 3]?
**A.** 100.7%

**Q.** What about the “HPLC purity (impurity peak at RRt retention time 0.72-0.73)” value [1, 3] of the same substance?
**A.** 0.06%

**Q.** What about the “HPLC purity (total impurities)” value [1, 3] of the same substance?
**A.** 0.3

**Q.** What about the “Water content (Karl Fischer, coulometric)” value (from here on “Water content”) [1, 3] of the same substance?
**A.** Trace < 1%

**Q.** And the “HPLC assay (w/w as is)” value [1, 4]?
**A.** 99.6%

**Q.** What about the “HPLC assay (w/w, solvent-free anhydrous basis)” value [1, 4] of the same substance?
**A.** 99.8%

**Q.** And the “HPLC purity (impurity peak at RRt retention time 0.72-0.73)” value [1, 4]?
**A.** <0.05%

**Q.** What about the “HPLC purity (total impurities)” value [1, 4] of the same substance?
**A.** 0.22

**Q.** What about the “Water content” value [1, 4] of the same substance?
**A.** <1% (0.1%)

**Q.** What about the “HPLC assay (w/w as is)” value [1, 5] of the same substance?
**A.** 98.2%

**Q.** And the “HPLC assay (w/w, solvent-free anhydrous basis)” value [1, 5]?
**A.** 98.4%

**Q.** What about the “HPLC purity (impurity peak at RRt retention time 0.72-0.73)” value [1, 5] of the same substance?
**A.** 0.07%

**Q.** And the “HPLC purity (total impurities)” value [1, 5]?
**A.** 0.24

**Q.** And the “Water content” value [1, 5]?
**A.** <1% (0.1%)

**Q.** What about the “HPLC assay (w/w as is)” value [1, 6] of the same substance?
**A.** 102.3%

**Q.** And the “HPLC assay (w/w, solvent-free anhydrous basis)” value [1, 6]?
**A.** 102.3%

**Q.** And the “HPLC parity (total impurities)” value [1, 6]?
**A.** 0.22

**Q.** And the “HPLC purity (impurity peak at RRt retention time 0.72-0.73)” value [1, 6]?
**A.** 0.06%

**Q.** And the “Water content” value [1, 6]?
**A.** Trace < 1%

**Q.** What about the “HPLC assay (w/w as is)” value [1, 7] of the same substance?
**A.** 102.0%

**Q.** What about the “HPLC assay (w/w, solvent-free anhydrous basis)” value [1, 7] of the same substance?
**A.** 102.1%

**Q.** And the “HPLC parity (total impurities)” value [1, 7]?
**A.** 0.29

**Q.** And the “HPLC purity (impurity peak at RRt retention time 0.72-0.73)” value [1, 7]?
**A.** 0.05%

**Q.** What about the “Water content” value [1, 7] of the same substance?
**A.** <1% (0.1%)

**Q.** What about the “HPLC assay (w/w as is)” value [1, 8] of the same substance?
**A.** 98.4%

**Q.** And the “HPLC assay (w/w, solvent-free anhydrous basis)” value [1, 8]?
**A.** 98.5%

**Q.** What about the “HPLC parity (total impurities)” value [1, 8] of the same substance?
**A.** 0.19

**Q.** What about the “HPLC purity (impurity peak at RRt retention time 0.72-0.73)” value [1, 8] of the same substance?
**A.** 0.05%

**Q.** And the “Water content” value [1, 8]?
**A.** <1% (0.1%)

**Q.** And the “HPLC assay (w/w as is)” value [2, 3]?
**A.** 100.4%

**Q.** What about the “HPLC assay (w/w, solvent-free anhydrous basis)” value [2, 3] of the same substance?
**A.** 100.7%

**Q.** What about the “HPLC purity (impurity peak at RRt retention time 0.72-0.73)” value [2, 3] of the same substance?
**A.** 0.06%

**Q.** What about the “HPLC purity (total impurities)” value [2, 3] of the same substance?
**A.** 03

**Q.** And the “Water content” value [2, 3]?
**A.** Trace <1%

**Q.** What about the “HPLC assay (w/w as is)” value [2, 4] of the same substance?
**A.** 100.9%

**Q.** What about the “HPLC assay (w/w, solvent-free anhydrous basis)” value [2, 4] of the same substance?
**A.** 101.2%

**Q.** What about the “HPLC purity (impurity peak at RRt retention time 0.72-0.73)” value [2, 4] of the same substance?
**A.** <0.05%

**Q.** What about the “HPLC purity (total impurities)” value [2, 4] of the same substance?
**A.** 0.28

**Q.** And the “Water content” value [2, 4]?
**A.** <1% (0.2%)

**Q.** What about the “HPLC assay (w/w as is)” value [2, 5] of the same substance?
**A.** 99.6%

**Q.** What about the “HPLC assay (w/w, solvent-free anhydrous basis)” value [2, 5] of the same substance?
**A.** 99.8%

**Q.** What about the “HPLC purity (impurity peak at RRt retention time 0.72-0.73)” value [2, 5] of the same substance?
**A.** 0.06%

**Q.** And the “HPLC purity (total impurities)” value [2, 5]?
**A.** 0.26

**Q.** And the “Water content” value [2, 5]?
**A.** <1% (0.1%)

**Q.** What about the “HPLC assay (w/w as is)” value [2, 6] of the same substance?
**A.** 102.3%

**Q.** What about the “HPLC assay (w/w, solvent-free anhydrous basis)” value [2, 6] of the same substance?
**A.** 102.3%

**Q.** And the “HPLC purity (impurity peak at RRt retention time 0.72-0.73)” value [2, 6]?
**A.** 0.06%

**Q.** And the “HPLC purity (total impurities)” value [2, 6]?
**A.** 0.22

**Q.** What about the “Water content” value [2, 6] of the same substance?
**A.** Trace < 1%

**Q.** And the “HPLC assay (w/w as is)” value [2, 7]?
**A.** 101.0%

**Q.** And the “HPLC assay (w/w, solvent-free anhydrous basis)” value [2, 7]?
**A.** 101.1%

**Q.** What about the “HPLC purity (impurity peak at RRt retention time 0.72-0.73)” value [2, 7] of the same substance?
**A.** <0.05%

**Q.** And the “HPLC purity (total impurities)” value [2, 7]?
**A.** 0.29

**Q.** What about the “Water content” value [2, 7] of the same substance?
**A.** <1% (0.1%)

**Q.** And the “HPLC assay (w/w as is)” value [2, 8]?
**A.** 97.7%

**Q.** And the “HPLC assay (w/w, solvent-free anhydrous basis)” value [2, 8]?
**A.** 97.8%

**Q.** What about the “HPLC purity (impurity peak at RRt retention time 0.72-0.73)” value [2, 8] of the same substance?
**A.** 0.06%

**Q.** And the “HPLC purity (total impurities)” value [2, 8]?
**A.** 0.24

**Q.** What about the “Water content” value [2, 8] of the same substance?
**A.** <1% (0.1%)
